The data set can be described thus: HILIC, Waters ACQUITY UPLC BEH Amide, 100 × 2.1 mm, 1.7 µm; A: water + 0.125% formic acid + 10 mM ammonium formate; B: 5% water + 95% acetonitrile + 0.125% formic acid + 10 mM ammonium formate; gradient (min/%B) 0/100 2/100 7.7/70 9.5/40 10.25/30 12.75/100 17/100. The following applies: stereoisomer not certain.

With `COCCCOc1ccnc(CS(=O)c2nc3ccccc3[nH]2)c1C` (configuration not stated) [Rabeprazole], the LC retention time was 2.44 min.

As for `CC(=O)SCC(Cc1ccccc1)C(=O)NCC(=O)OCc1ccccc1` (configuration not stated) [Racecadotril], the LC retention time came out at 0.95 min.

Turning to `CCN1CCCC1CNC(=O)c1c(O)c(Cl)cc(Cl)c1OC` (configuration not stated) [Raclopride], the LC retention time is 2.11 min.

For the molecule `OCC1OC(OCC2OC(OC3(CO)OC(CO)C(O)C3O)C(O)C(O)C2O)C(O)C(O)C1O` (configuration not stated) [Raffinose], the LC retention time came out at 9.17 min.

Regarding `Cc1nc2ccc(CN(C)c3ccc(C(=O)NC(CCC(=O)O)C(=O)O)s3)cc2c(=O)[nH]1` (configuration not stated) [Raltitrexed], the LC retention time is 7.35 min.

Regarding `CCOC(=O)C(CCc1ccccc1)NC(C)C(=O)N1C(C(=O)O)CC2CCCC21` (configuration not stated) [Ramipril], the LC retention time amounted to 1.4 min.

In the case of `CNC(=C[N+](=O)[O-])NCCSCc1ccc(CN(C)C)o1` [Ranitidine], the LC retention time was found to be 5.18 min.

For `COc1ccccc1OCC(O)CN1CCN(CC(=O)Nc2c(C)cccc2C)CC1` (configuration not stated) [Ranolazine], the LC retention time was determined as 2.79 min.

For `CC(Cc1ccccc1)(NC(=O)CN)c1ccccc1` (configuration not stated) [Remacemide], the LC retention time is 4.41 min.

Turning to `CCOc1cc(CC(=O)NC(CC(C)C)c2ccccc2N2CCCCC2)ccc1C(=O)O` (configuration not stated) [Repaglinide], the LC retention time was 1.01 min.

Consider `Oc1ccc(C=Cc2cc(O)cc(O)c2)cc1` [Resveratrol], for which the LC retention time came to 1.41 min.

As for `CC(C=CC1=C(C)CCCC1(C)C)=CC=CC(C)=CC(=O)O` [Retinoic acid], the LC retention time is 1.11 min.

In the case of `Cc1cc2nc3c(=O)[nH]c(=O)nc-3n(CC(O)C(O)C(O)CO)c2cc1C` (configuration not stated) [Riboflavin], the LC retention time amounted to 6 min.

As to `COC1C=COC2(C)Oc3c(C)c(O)c4c(O)c(c5c(c4c3C2=O)=NC2(CCN(CC(C)C)CC2)N=5)NC(=O)C(C)=CC=CC(C)C(O)C(C)C(O)C(C)C(OC(C)=O)C1C` (configuration not stated) [Rifabutin], the LC retention time was 2.76 min.

In the case of `COC1C=COC2(C)Oc3c(C)c(O)c4c(O)c(c(C=NN5CCN(C6CCCC6)CC5)c(O)c4c3C2=O)NC(=O)C(C)=CC=CC(C)C(O)C(C)C(O)C(C)C(OC(C)=O)C1C` (configuration not stated) [Rifapentine], the LC retention time was determined as 1.81 min.

As to `COC1C=COC2(C)Oc3c(C)c(O)c4c(O)c(c5c(nc6cc(C)ccn65)c4c3C2=O)NC(=O)C(C)=CC=CC(C)C(O)C(C)C(O)C(C)C(OC(C)=O)C1C` (configuration not stated) [Rifaximin], the LC retention time was 1.18 min.

As for `Nc1nc2ccc(OC(F)(F)F)cc2s1` [Riluzole], the LC retention time was found to be 1.03 min.

For `CC1CN(CCCn2c3ccccc3c3ccccc32)CC(C)N1` (configuration not stated) [Rimcazole], the LC retention time stood at 2.87 min.

Turning to `Cc1nc2n(c(=O)c1CCN1CCC(c3noc4cc(F)ccc34)CC1)CCCC2` [Risperidone], the LC retention time amounted to 3.52 min.

On to `CC(C)c1nc(CN(C)C(=O)NC(C(=O)NC(Cc2ccccc2)CC(O)C(Cc2ccccc2)NC(=O)OCc2cncs2)C(C)C)cs1` (configuration not stated) [Ritonavir], for which the LC retention time was found to be 1.15 min.

Regarding `CN(C)CCc1c[nH]c2ccc(Cn3cncn3)cc12` [Rizatriptan], the LC retention time turned out to be 5.11 min.

Take `CS(=O)(=O)c1ccc(C2=C(c3ccccc3)C(=O)OC2)cc1` [Rofecoxib]: the LC retention time came to 0.97 min.

With `COc1ccc(C2CNC(=O)C2)cc1OC1CCCC1` (configuration not stated) [Rolipram], the LC retention time worked out at 1.12 min.

On to `CCCN1CCCCC1C(=O)Nc1c(C)cccc1C` (configuration not stated) [Ropivacaine], for which the LC retention time worked out at 2.49 min.

For the molecule `CN(CCOc1ccc(CC2SC(=O)NC2=O)cc1)c1ccccn1` (configuration not stated) [Rosigltazone], the LC retention time was 1.24 min.

`CC(=O)OCC(=O)NCCCOc1cccc(CN2CCCCC2)c1` [Roxane]: the LC retention time worked out at 3.01 min.

As for `CN1CCN(c2c(F)cc3c(=O)c(C(=O)O)cn4c3c2SCC4)CC1` [Rufloxacin], the LC retention time came out at 4.65 min.

For the molecule `CC1OC(OCC2OC(Oc3c(-c4ccc(O)c(O)c4)oc4cc(O)cc(O)c4c3=O)C(O)C(O)C2O)C(O)C(O)C1O` (configuration not stated) [Rutin], the LC retention time turned out to be 6.6 min.

For `Nc1ncnc2c1ncn2C1OC(CSCCC(N)C(=O)O)C(O)C1O` (configuration not stated) [S-Adenosyl-homocysteine], the LC retention time was 8.85 min.

With `C[S+](CCC(N)C(=O)[O-])CC1OC(n2cnc3c(N)ncnc32)C(O)C1O` (configuration not stated) [S-Adenosyl-methionine], the LC retention time came to 9.7 min.

Take `CN=C(NC)NCCCC(N)C(=O)O` (configuration not stated) [SDMA]: the LC retention time is 8.49 min.

With `OCc1ccccc1OC1OC(CO)C(O)C(O)C1O` (configuration not stated) [Salicin], the LC retention time was found to be 4.48 min.

As for `OCc1cc(C(O)CNCCCCCCOCCCCc2ccccc2)ccc1O` (configuration not stated) [Salmeterol], the LC retention time came to 4.75 min.

As to `CC(C)(C)NC(=O)C1CC2CCCCC2CN1CC(O)C(Cc1ccccc1)NC(=O)C(CC(N)=O)NC(=O)c1ccc2ccccc2n1` (configuration not stated) [Saquinavir], the LC retention time is 2.85 min.

Take `CNCC(=O)O` [Sarcosine]: the LC retention time was found to be 7.82 min.

On to `CN1C2CC(OC(=O)C(CO)c3ccccc3)CC1C1OC12` (configuration not stated) [Scopolamine], for which the LC retention time amounted to 3.75 min.

Take `COc1cc2ccc(=O)oc2cc1O` [Scopoletin]: the LC retention time came out at 1.16 min.

For the molecule `Cc1ncc([N+](=O)[O-])n1CC(C)O` (configuration not stated) [Secnidazole], the LC retention time is 1.12 min.

With `C#CCN(C)C(C)Cc1ccccc1` (configuration not stated) [Selegiline], the LC retention time is 1.5 min.

For the molecule `NC(CO)C(=O)O` (configuration not stated) [Serine], the LC retention time stood at 8.73 min.

Regarding `NCCc1c[nH]c2ccc(O)cc12` [Serotonin], the LC retention time was determined as 1.44 min.

For `CNC1CCC(c2ccc(Cl)c(Cl)c2)c2ccccc21` (configuration not stated) [Sertraline], the LC retention time turned out to be 2.74 min.

Turning to `CC(C)CC(N(C)C)C1(c2ccc(Cl)cc2)CCC1` (configuration not stated) [Sibutramine], the LC retention time was 1.86 min.

For `COc1cc(C=CC(=O)O)cc(OC)c1O` [Sinapic acid], the LC retention time was 1.41 min.

As for `O=P(O)(O)OCC(O)C(O)C(O)C(O)CO` (configuration not stated) [Sorbitol-6-phosphate], the LC retention time came out at 9.75 min.

With `CC(C)NCC(O)c1ccc(NS(C)(=O)=O)cc1` (configuration not stated) [Sotalol], the LC retention time was 4.87 min.

Turning to `NCCCCNCCCN` [Spermidine], the LC retention time stood at 6.98 min.

On to `NCCCNCCCCNCCCN` [Spermine], for which the LC retention time was determined as 7.24 min.

Turning to `C[N+]1(C)CCCC1C(=O)[O-]` (configuration not stated) [Stachydrine], the LC retention time was 7.1 min.

Take `CC12Cc3cn[nH]c3CC1CCC1C2CCC2(C)C1CCC2(C)O` (configuration not stated) [Stanozolol]: the LC retention time came out at 1.19 min.

As for `Cc1cn(C2C=CC(CO)O2)c(=O)[nH]c1=O` (configuration not stated) [Stavudine], the LC retention time was 1.62 min.

With `CCCCCCCCCCCCCCCCCC(=O)OC(CC(=O)[O-])C[N+](C)(C)C` [Stearoyl-L-carnitine], the LC retention time worked out at 2.96 min.

`C=Cc1ccccc1` [Styrene]: the LC retention time came to 8.74 min.

For the molecule `O=C(O)CCC(=O)O` [Succinic acid], the LC retention time was determined as 4.46 min.

On to `OCC1OC(OC2(CO)OC(CO)C(O)C2O)C(O)C(O)C1O` (configuration not stated) [Sucrose], for which the LC retention time was 8.05 min.

Take `O=C(O)c1cc(N=Nc2ccc(S(=O)(=O)Nc3ccccn3)cc2)ccc1O` [Sulfasalazine]: the LC retention time was found to be 2.01 min.

As to `CS(=O)CCCCN=C=S` (configuration not stated) [Sulforaphane], the LC retention time was found to be 1.14 min.

On to `CNS(=O)(=O)Cc1ccc2[nH]cc(CCN(C)C)c2c1` [Sumatriptan], for which the LC retention time was 4.31 min.

With `CNCC(O)c1ccc(O)cc1` (configuration not stated) [Synephrine], the LC retention time is 5.67 min.

On to `COc1cc(-c2oc3cc(O)cc(O)c3c(=O)c2OC2OC(CO)C(O)C(O)C2O)cc(OC)c1O` (configuration not stated) [Syringetin-3-O-glucoside], for which the LC retention time was found to be 4.32 min.

Turning to `COc1cc(C(=O)O)cc(OC)c1O` [Syringic acid], the LC retention time came to 1.35 min.

Regarding `O=S(=O)(O)CCNC(CO)(CO)CO` [TES], the LC retention time was 7.7 min.

On to `Nc1c2c(nc3ccccc13)CCCC2` [Tacrine], for which the LC retention time worked out at 3.86 min.

For the molecule `C=CCC1C=C(C)CC(C)CC(OC)C2OC(O)(C(=O)C(=O)N3CCCCC3C(=O)OC(C(C)=CC3CCC(O)C(OC)C3)C(C)C(O)CC1=O)C(C)CC2OC` (configuration not stated) [Tacrolimus], the LC retention time was found to be 1.07 min.

As for `CN1CC(=O)N2C(Cc3c([nH]c4ccccc34)C2c2ccc3c(c2)OCO3)C1=O` (configuration not stated) [Taldalafil], the LC retention time worked out at 1.19 min.

As to `CN=C(N)NCCCC(N)C(=O)O` (configuration not stated) [Targinine], the LC retention time amounted to 9.22 min.

With `NCCS(=O)(=O)O` [Taurine], the LC retention time turned out to be 7.85 min.

As for `CC(CCC(=O)NCCS(=O)(=O)O)C1CCC2C3C(O)CC4CC(O)CCC4(C)C3CC(O)C12C` (configuration not stated) [Taurocholic acid], the LC retention time stood at 6.12 min.

In the case of `O=C1c2c(O)cc(O)cc2OC(c2ccc(O)c(O)c2)C1O` (configuration not stated) [Taxifolin], the LC retention time amounted to 1.78 min.

With `O=c1[nH]c(=O)n(C2CCCO2)cc1F` (configuration not stated) [Tegafur], the LC retention time came out at 1.22 min.

Take `CCCCCN=C(N)NN=Cc1c[nH]c2ccc(OC)cc12` [Tegaserod]: the LC retention time is 2.84 min.

Turning to `CCCc1nc2c(C)cc(-c3nc4ccccc4n3C)cc2n1Cc1ccc(-c2ccccc2C(=O)O)cc1` [Telmisartan], the LC retention time came to 1.25 min.

Consider `CN1C(=O)C(O)N=C(c2ccccc2)c2cc(Cl)ccc21` (configuration not stated) [Temazepam], for which the LC retention time stood at 1.15 min.

Regarding `Cn1nnc2c(C(N)=O)ncn2c1=O` [Temozolomide], the LC retention time was determined as 1.33 min.

For the molecule `COc1cc2nc(N3CCN(C(=O)C4CCCO4)CC3)nc(N)c2cc1OC` (configuration not stated) [Terazosin], the LC retention time came out at 4.66 min.

As to `CN(CC=CC#CC(C)(C)C)Cc1cccc2ccccc12` [Terbinafine], the LC retention time was 1.33 min.

On to `CC12CCC(=O)C=C1CCC1C2CCC2(C)C(O)CCC12` (configuration not stated) [Testosterone], for which the LC retention time came out at 1.05 min.

(Values after the RepoRT retention time repository.)
